Target: T1, COX-2 (Homo sapiens, UniProt P35354)
T1 construct: from tissue; host or cells: heparinised human whole blood from a healthy donor, stimulated with LPS
T1 sequence (P35354 18-604): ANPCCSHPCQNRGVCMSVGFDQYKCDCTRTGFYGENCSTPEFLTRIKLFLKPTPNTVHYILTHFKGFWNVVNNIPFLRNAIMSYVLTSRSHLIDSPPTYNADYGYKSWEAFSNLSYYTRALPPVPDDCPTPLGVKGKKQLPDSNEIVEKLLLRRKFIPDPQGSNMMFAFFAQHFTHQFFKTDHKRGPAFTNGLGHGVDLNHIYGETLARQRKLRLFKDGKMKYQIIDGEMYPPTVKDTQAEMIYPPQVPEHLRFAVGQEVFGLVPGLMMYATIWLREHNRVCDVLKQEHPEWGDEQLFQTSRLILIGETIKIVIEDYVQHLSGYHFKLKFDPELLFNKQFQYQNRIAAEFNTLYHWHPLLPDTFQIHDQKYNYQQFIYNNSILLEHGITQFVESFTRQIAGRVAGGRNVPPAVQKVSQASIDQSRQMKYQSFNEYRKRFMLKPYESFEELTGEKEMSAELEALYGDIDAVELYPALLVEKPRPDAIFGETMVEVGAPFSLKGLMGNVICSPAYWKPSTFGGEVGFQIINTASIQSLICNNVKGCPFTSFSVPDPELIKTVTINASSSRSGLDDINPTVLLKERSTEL
Experiment: Human whole blood assay, in vitro COX-2 assay (LPS-induced PGE2 by EIA)
Format: cell-based
Settings: ratio of IC50 COX-1 to IC50 COX-2
Method: This test was performed according to the method described in Inflamm. Res., 45: 68-74 (1996).
A person who had not taken NSAIDs for at least one week and was healthy on the day of blood collection was selected as a subject for blood collection.
Blood was collected in heparin-treated test tubes (Venojectll blood collection tubes, Terumo Corporation), and an inflammatory stimulant, lipopolysaccharide (LPS) (Sigma-Aldrich Japan Inc., #L2880 from E. coli055:B5: diluted in phosphate buffered saline (PBS) to a final concentration of 100 μg/mL) was added to the blood. The mixture was dispensed in 500 μL aliquots into tubes. 2 μL of the test compound (final concentration: 0.1 μM to 1000 μM) dissolved in an appropriate solvent (DMSO or MilliQ water) was added and incubated at 37° C. for 24 hours to induce COX-2.
After incubation, the samples were centrifuged at 12,000×g for 5 minutes to separate serum. 100 μL of the obtained serum was added to 400 μL of ethanol to remove blood protein, and the mixture was centrifuged again at 12,000×g for 5 minutes. PGE2 in the supernatant was quantified by using an enzyme immunoassay (EIA) kit [Cayman (Ann, Arbor, Mich., USA) #514040]. The protocol followed the protocol attached to the kit.

For `CC(C(=O)O)c1ccc(CC2CCCC2=O)cc1` (stereo not shown) [LOXONIN, loxoprofen], the “COX-2 S[…]. 1/COX. 2” value was 4.0.
